Results from PubChem BioAssay (NCI).
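Protocol summary: plate cells (96-well), add compound at 5 concentrations, incubate 48 h, interpolate endpoints linearly. Definition used: TGI = concentration required for complete inhibition of growth.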

Experiments:
Test in all cases: NCI anticancer screen, dose series, 48 h
OVCAR-3 ovarian = system: OVCAR-3 ovarian
KM12 colon = system: KM12 colon
SF-268 CNS = system: SF-268 CNS
A549 NSCLC = system: A549 NSCLC
OVCAR-5 ovarian = system: OVCAR-5 ovarian
SK-OV-3 ovarian = system: SK-OV-3 ovarian
UACC-62 melanoma = system: UACC-62 melanoma
MALME-3M melanoma = system: MALME-3M melanoma
M14 melanoma = system: M14 melanoma
HCT-15 colon = system: HCT-15 colon
KM20L2 colon = system: KM20L2 colon
DMS 273 small cell lung = system: DMS 273 small cell lung
K-562 leukemia = system: K-562 leukemia
HCC-2998 colon = system: HCC-2998 colon
HT29 colon = system: HT29 colon
SK-MEL-5 melanoma = system: SK-MEL-5 melanoma
SF-295 CNS = system: SF-295 CNS
SW-620 colon = system: SW-620 colon
SF-539 CNS = system: SF-539 CNS
MOLT-4 leukemia = system: MOLT-4 leukemia
DMS 114 small cell lung = system: DMS 114 small cell lung
SN12C renal = system: SN12C renal
SNB-78 CNS = system: SNB-78 CNS
IGROV1 ovarian = system: IGROV1 ovarian
LOX IMVI melanoma = system: LOX IMVI melanoma
NCI-H522 lung = system: NCI-H522 lung
OVCAR-8 ovarian = system: OVCAR-8 ovarian
M19-MEL melanoma = system: M19-MEL melanoma
LXFL 529 NSCLC = system: LXFL 529 NSCLC
UO-31 renal = system: UO-31 renal
HOP-92 NSCLC = system: HOP-92 NSCLC
COLO 205 colon = system: COLO 205 colon
DLD-1 colon = system: DLD-1 colon
NCI-H226 lung = system: NCI-H226 lung
TK-10 renal = system: TK-10 renal
A498 renal = system: A498 renal
NCI-H23 lung = system: NCI-H23 lung
U251 CNS = system: U251 CNS
UACC-257 melanoma = system: UACC-257 melanoma
SNB-19 CNS = system: SNB-19 CNS
OVCAR-4 ovarian = system: OVCAR-4 ovarian
RPMI-8226 leukemia = system: RPMI-8226 leukemia
786-0 renal = system: 786-0 renal
HL-60(TB) leukemia = system: HL-60(TB) leukemia
ACHN renal = system: ACHN renal
NCI-H460 lung = system: NCI-H460 lung
HOP-62 NSCLC = system: HOP-62 NSCLC
EKVX NSCLC = system: EKVX NSCLC
CAKI-1 renal = system: CAKI-1 renal
CCRF-CEM leukemia = system: CCRF-CEM leukemia
HCT-116 colon = system: HCT-116 colon
XF 498 CNS = system: XF 498 CNS
SK-MEL-28 melanoma = system: SK-MEL-28 melanoma
SNB-75 CNS = system: SNB-75 CNS
SR leukemia = system: SR leukemia
RXF 393 renal = system: RXF 393 renal
SK-MEL-2 melanoma = system: SK-MEL-2 melanoma
HOP-18 NSCLC = system: HOP-18 NSCLC

Measured: TGI

COC(=O)/C=C(C)/C=C/C1OC(C)OCC1O (stereo not drawn)
> 100 µM: OVCAR-3 ovarian | KM12 colon | SF-268 CNS | A549 NSCLC | OVCAR-5 ovarian | SK-OV-3 ovarian | UACC-62 melanoma | MALME-3M melanoma | M14 melanoma | HCT-15 colon | KM20L2 colon | DMS 273 small cell lung | K-562 leukemia | HCC-2998 colon | HT29 colon | SK-MEL-5 melanoma | SF-295 CNS | SW-620 colon | SF-539 CNS | MOLT-4 leukemia | DMS 114 small cell lung | SN12C renal | SNB-78 CNS | IGROV1 ovarian | LOX IMVI melanoma | NCI-H522 lung | OVCAR-8 ovarian | M19-MEL melanoma | LXFL 529 NSCLC | UO-31 renal | HOP-92 NSCLC | COLO 205 colon | DLD-1 colon | NCI-H226 lung | TK-10 renal | A498 renal | NCI-H23 lung | U251 CNS | UACC-257 melanoma | SNB-19 CNS | OVCAR-4 ovarian | RPMI-8226 leukemia | 786-0 renal | HL-60(TB) leukemia | ACHN renal | NCI-H460 lung | HOP-62 NSCLC | EKVX NSCLC | CAKI-1 renal | CCRF-CEM leukemia

CCC(=O)c1c(NOC2OCC(OC(C)=O)C(OC(C)=O)C2OC(C)=O)nc(OC)n(C)c1=O (stereo not drawn)
> 100 µM: OVCAR-3 ovarian | KM12 colon | SF-268 CNS | A549 NSCLC | OVCAR-5 ovarian | HCT-116 colon | SK-OV-3 ovarian | UACC-62 melanoma | MALME-3M melanoma | M14 melanoma | HCT-15 colon | KM20L2 colon | DMS 273 small cell lung | K-562 leukemia | XF 498 CNS | HCC-2998 colon | HT29 colon | SK-MEL-5 melanoma | SF-295 CNS | SW-620 colon | SF-539 CNS | MOLT-4 leukemia | DMS 114 small cell lung | SN12C renal | SNB-78 CNS | IGROV1 ovarian | LOX IMVI melanoma | OVCAR-8 ovarian | M19-MEL melanoma | LXFL 529 NSCLC | SK-MEL-28 melanoma | UO-31 renal | HOP-92 NSCLC | COLO 205 colon | DLD-1 colon | SNB-75 CNS | NCI-H226 lung | TK-10 renal | SR leukemia | A498 renal | NCI-H23 lung | U251 CNS | UACC-257 melanoma | SNB-19 CNS | OVCAR-4 ovarian | RPMI-8226 leukemia | 786-0 renal | HL-60(TB) leukemia | ACHN renal | NCI-H460 lung | HOP-62 NSCLC | EKVX NSCLC | CAKI-1 renal | RXF 393 renal | CCRF-CEM leukemia

O=C1CC2CC3OC3[C@H]3c4cc5c(cc4C(=O)N1C23)OCO5 (stereo partly drawn)
> 100 µM: OVCAR-3 ovarian | KM12 colon | SF-268 CNS | A549 NSCLC | OVCAR-5 ovarian | HCT-116 colon | SK-OV-3 ovarian | UACC-62 melanoma | MALME-3M melanoma | M14 melanoma | HCT-15 colon | KM20L2 colon | DMS 273 small cell lung | K-562 leukemia | XF 498 CNS | HCC-2998 colon | HT29 colon | SF-295 CNS | SW-620 colon | SF-539 CNS | MOLT-4 leukemia | DMS 114 small cell lung | SN12C renal | IGROV1 ovarian | LOX IMVI melanoma | NCI-H522 lung | OVCAR-8 ovarian | M19-MEL melanoma | LXFL 529 NSCLC | SK-MEL-28 melanoma | UO-31 renal | HOP-92 NSCLC | COLO 205 colon | NCI-H226 lung | TK-10 renal | SR leukemia | SK-MEL-2 melanoma | SNB-19 CNS | OVCAR-4 ovarian | RPMI-8226 leukemia | HL-60(TB) leukemia | ACHN renal | NCI-H460 lung | HOP-62 NSCLC | EKVX NSCLC | CAKI-1 renal | CCRF-CEM leukemia

O=c1cc(CO)oc2c3c(cc(O)c12)OCC(COC1OC(CO)C(O)C(O)C1O)=CC3 (stereo not drawn)
> 100 µM: OVCAR-3 ovarian | KM12 colon | SF-268 CNS | A549 NSCLC | OVCAR-5 ovarian | HCT-116 colon | SK-OV-3 ovarian | UACC-62 melanoma | M14 melanoma | HCT-15 colon | KM20L2 colon | DMS 273 small cell lung | K-562 leukemia | HCC-2998 colon | HT29 colon | SK-MEL-5 melanoma | SF-295 CNS | SW-620 colon | SF-539 CNS | MOLT-4 leukemia | DMS 114 small cell lung | SN12C renal | SNB-78 CNS | IGROV1 ovarian | LOX IMVI melanoma | NCI-H522 lung | OVCAR-8 ovarian | M19-MEL melanoma | LXFL 529 NSCLC | SK-MEL-28 melanoma | UO-31 renal | HOP-92 NSCLC | COLO 205 colon | DLD-1 colon | SNB-75 CNS | NCI-H226 lung | TK-10 renal | SR leukemia | A498 renal | NCI-H23 lung | SK-MEL-2 melanoma | U251 CNS | UACC-257 melanoma | HOP-18 NSCLC | SNB-19 CNS | OVCAR-4 ovarian | RPMI-8226 leukemia | 786-0 renal | HL-60(TB) leukemia | ACHN renal | NCI-H460 lung | HOP-62 NSCLC | EKVX NSCLC | CAKI-1 renal | RXF 393 renal | CCRF-CEM leukemia
